The values below come from BindingDB's records for doi:10.1016/s0960-894x(03)00789-3 (Wyeth Research, 2003).

Usually IC50 stands for the concentration that gives 50% inhibition. A low value points to greater potency in that assay.

The assay has as its target Human cytomegalovirus protease (assemblin, UL80). The experiment in a line: In vitro inhibitory activity against HCMV (human cytomegalovirus) protease using scintillation proximity assay.
On to `COc1ccc(-c2nnc3nc(C)c(C)c(=O)n3n2)cc1` [3-(4-Methoxy-phenyl)-7,8-dimethyl-pyrimido[1,2-b][1,2,4,5]tetrazin-6-one], for which the IC50 was 500 nM. In turn, `Cc1nc2nnc(C(c3ccccc3)c3ccccc3)nn2c(=O)c1C` [3-Benzhydryl-7,8-dimethyl-pyrimido[1,2-b][1,2,4,5]tetrazin-6-one] came in with an IC50 of 1700 nM. As for `Cc1nc2nnc(-c3ccccc3)nn2c(=O)c1C` [7,8-Dimethyl-3-phenyl-pyrimido[1,2-b][1,2,4,5]tetrazin-6-one], the figure is 400 nM; as for `Cc1nc2nncnn2c(=O)c1C` [7,8-Dimethyl-pyrimido[1,2-b][1,2,4,5]tetrazin-6-one], 100 nM. The value for `Cc1nc2nnc(C(C)(C)C)nn2c(=O)c1C` [3-tert-Butyl-7,8-dimethyl-pyrimido[1,2-b][1,2,4,5]tetrazin-6-one] was 600 nM; that for `Cc1nc2nnc(-c3ccc([N+](=O)[O-])cc3)nn2c(=O)c1C` [7,8-Dimethyl-3-(4-nitro-phenyl)-pyrimido[1,2-b][1,2,4,5]tetrazin-6-one] was 1700 nM. As for `Cc1ccc(-c2nnc3nc(C)c(C)c(=O)n3n2)cc1` [7,8-Dimethyl-3-p-tolyl-pyrimido[1,2-b][1,2,4,5]tetrazin-6-one], the figure is 300 nM. `Cc1nnc2nc(C)c(C)c(=O)n2n1` [3,7,8-Trimethyl-pyrimido[1,2-b][1,2,4,5]tetrazin-6-one]: half-maximal inhibition (IC50) was put at 300 nM. This counts as sub-micromolar.
